Measurements taken from US12630632B2, “Bispecific HER2 and CD3 binding molecules” (Memorial Sloan Kettering Cancer Center, priority 2017, dated 2026).
“Also recorded” adds a separate entry of the source.

How the values were obtained:
naïve T cells = assay: T cell proliferation (WST-8); type: cell-based, human; conditions: 67 nM antibody, 6 days
Description: For T cell proliferation, naïve T cells were purified from human PBMC using Pan T cell isolation kit (Miltenyi Biotec). 2×10^5 purified T cells were mixed with different antibodies in 96-well cell culture plate to a final volume of 250 μl/well. T cells were cultured and maintained in RPMI-1640 supplemented with 10% FBS in 37° C. for 6 days. T cell proliferation was quantitated using the WST-8 kit as described above.

[1] = system: HER2(+) SCCHN PCI-13 cells; assay: Blocking of HER2-BsAb T-cell cytotoxicity by trastuzumab or anti-CD3; type: cell-based, human; conditions: for effect of blocking antibody on HER2-BsAb induced T cell cytotoxicity: HER2-positive cells pre-incubated with blocking antibody (Examples 1, 2)
Description: (§1) The ^51Cr release assay was performed with effector T cells cultured in vitro in the presence of anti-CD3 and anti-CD28 for about 14 days. All target tumor cells were harvested with 2 mM EDTA in PBS, labeled with ^51Cr (Amersham, Arlington Height, IL) at 100 μCi/106 cells at 37° C. for 1 h. 5000 target cells/well were mixed with 50,000 effector cells (E:T=10:1) and BsAb antibodies in 96-well polystyrene round-bottom plates (BD Biosciences) to a final volume of 250 μl/well. The plates were incubated at 37° C. for 4 h. The released ^51Cr in supernatant was counted in a γ-counter (Packed Instrument, Downers Grove, IL). Percentage of specific release was calculated using the formula: (experimental cpm−background cpm)/(total cpm−background cpm)×100%, where cpm represented counts per minute of ^51Cr released. Total release was assessed by lysis with 10% SDS (Sigma, St Louis, Mo), and background release was measured in the absence of effector cells. EC50 was calculated using SigmaPlot software.

[2] = system: HCC1954 breast cancer xenograft; assay: s.c. tumor plus i.v. effector cells xenograft model; type: in vivo, DKO mice; conditions: i.v. PBMC 7.5×10^6 once per week for 2 weeks, 100 μg i.v. twice per week for 4 weeks (Example 4)
Description: Three humanized mouse xenograft models were used: (1) intravenous tumor plus intravenous effector cells; (2) subcutaneous tumor plus subcutaneous effector cells; and (3) subcutaneous tumor plus intravenous effector cells. Subcutaneous xenografts were created with 5×10^6 cells suspended in Matrigel (Corning Corp, Tewksbury MA) and implanted in the flank of DKO mice. Effector peripheral blood mononuclear cell (PBMC) cells were purified from buffy coats purchased from the New York Blood Center. Prior to every experimental procedure, PBMCs were analyzed for their percentage of CD3, CD4, CD8 and CD56 cells to ensure consistency. […] Tumor size was measured using (1) hand-held TM900 scanner (Pieira, Brussels, BE); (2) Calipers; or (3) bioluminescence. Bioluminescence imaging was conducted using the Xenogen In Vivo Imaging System (IVIS) 200 (Caliper LifeSciences). Briefly, mice were injected intravenously with 0.1 mL solution of D-luciferin (Gold Biotechnology; 30 mg/mL stock in PBS). […]
Effector PBMC cells and ATCs were prepared as described above. Prior to every experimental procedure, PBMCs and ATCs were analyzed by FACS for their percentage of CD3, CD4, CD8 and CD56 cells to ensure consistency. […] Tumor size was measured using 1) hand-held TM900 scanner (Pieira, Brussels, BE), 2) Calipers, or 3) Bioluminescence. […]

SCCHN cell line PCI-30 = assay: Cell proliferation assay (WST-8); type: cell-based, human; conditions: 10 nM kinase inhibitors, 10 μg/mL antibodies
Description: (§2) Cell proliferation was determined using an ELISA plate reader and the WST-8 kit (Dojindo technologies) following the manufacturer's instructions and using the formula: % survival rate=(Sample-Background)/(Negative control-Background). Lapatinib (MSKCC pharmacy) was ground using a mortar and pestle and suspended in DMSO as previously described. To determine statistical significance, the results were analyzed using one-way ANOVA using Prism 6.0.
(§3) For cell proliferation assays, 5,000 tumor cells were plated using RPMI-1640 supplemented with 10% FBS in a 96 well plate for 36 hours before being treated with lapatinib or the antibodies at the specified concentrations. Cell proliferation was determined using an ELISA plate reader and the WST-8 kit (Dojindo technologies) following the manufacturer's instructions and using the formula: % survival rate=(Sample-Background)/(Negative control-Background). Lapatinib (Memorial Sloan Kettering Cancer Center pharmacy) was ground using a mortar and pestle and suspended in DMSO as previously described (Chen et al., 2012, Molecular cancer therapeutics 11:660-669). To determine statistical significance, the results were analyzed using one-way ANOVA using Prism 6.0.
(§4) For tumor cell proliferation, 5,000 tumor cells were plated using RPMI-1640 supplemented with 10%, fetal bovine serum (“FBS”) in a 96 well plate for 36 hours before being treated with—kinase inhibitors or the antibodies at the specified concentration. Cell proliferation was determined using the cell counting WST-8 kit (Dojindo technologies) following the manufacturer's instructions and using the formula: % survival rate=(Sample-Background)(Negative control-Background). Lapatinib was ground using a mortar and pestle and suspended in DMSO as previously described (Chen et al., Molecular cancer therapeutics 2012; 11:660-9). To determine statistical significance, the results were analyzed using one-way ANOVA using Prism 6.0.

[3] = system: osteosarcoma cell line U2OS; assay: Cell proliferation assay (WST-8); type: cell-based, human; conditions: 10 nM kinase inhibitors, 10 μg/mL antibodies
Description: as §2, §3, §4

[4] = system: cervical carcinoma HeLa cells; assay: Cell proliferation assay (WST-8); type: cell-based, human; conditions: 10 nM kinase inhibitors, 10 μg/mL antibodies
Description: as §2, §3, §4

HeLa = assay: T-cell cytotoxicity, 51Cr release assay; type: cell-based, human; conditions: HeLa pre-treated with lapatinib
Description: as §1
Cell cytotoxicity was assayed by ^51Cr release as previously described (Xu et al., Cancer immunology research 2015; 3:266-77), and EC50 was calculated using SigmaPlot software. Effector PBMC cells were purified from buffy coats purchased from the New York Blood Center. […]

huOKT3: humanized anti-CD3 OKT3 IgG1, bivalent
T cell proliferation in the absence of tumor targets (naïve T cells): robust T cell proliferation
effect of blocking antibody on HER2-BsAb induced T cell cytotoxicity [1]: block
effect of blocking antibody on HER2-BsAb T-cell cytotoxicity ([1]; PCI-13, 0.1 μg/mL HER2-BsAb, 10 μg/mL blocking antibodies): prevented; also recorded: abrogates

Pembrolizumab
tumor volume [2]: no effect

CCOc1cc2ncc(C#N)c(Nc3ccc(OCc4ccccn4)c(Cl)c3)c2cc1NC(=O)/C=C/CN(C)C [neratinib]
sensitivity in proliferation assay (SCCHN cell line PCI-30): resistant
sensitivity in proliferation assay [3]: minimal sensitivity; also recorded: resistant
sensitivity in proliferation assay [4]: resistant
sensitivity in proliferation assay ([4]; listed as Neratinib): pan-resistant

C#Cc1cccc(Nc2ncnc3cc(OCCOC)c(OCCOC)cc23)c1 [erlotinib]
sensitivity in proliferation assay (SCCHN cell line PCI-30): resistant
sensitivity in proliferation assay [3]: minimal sensitivity; also recorded: resistant
sensitivity in proliferation assay [4]: resistant
sensitivity in proliferation assay ([4]; listed as Erlotinib): pan-resistant

Atezolizumab
tumor volume [2]: no effect

OKT3: CD3 specific blocking mAb
effect of blocking antibody on HER2-BsAb induced T cell cytotoxicity [1]: prevented

CS(=O)(=O)CCNCc1ccc(-c2ccc3ncnc(Nc4ccc(OCc5cccc(F)c5)c(Cl)c4)c3c2)o1 [lapatinib]
sensitivity in proliferation assay (SCCHN cell line PCI-30): resistant
sensitivity in proliferation assay [3]: resistant
sensitivity in proliferation assay ([3]; listed as Lapatinib): minimal sensitivity
sensitivity in proliferation assay [4]: no effect on cell proliferation; also recorded: resistant
sensitivity in proliferation assay ([4]; listed as Lapatinib): pan-resistant
effect of pretreatment on sensitivity to HER2-BsAb mediated cytotoxicity (HeLa): enhances
